This passage reports Ki, Kinact and Inhibitory potency results from ChEMBL document CHEMBL1139519, “Are L-adenosine and its derivatives substrates for S-adenosyl-L-homocysteine hydrolase?” (J Med Chem, 2005).

For assay [1], the target named is T1, Adenosylhomocysteinase (Homo sapiens, UniProt P23526). The assay can be described thus: Inhibitory potency against recombinant human placental S-Adenosyl-L-homocysteine Hydrolase.
Target sequence in this assay (P23526 whole entry): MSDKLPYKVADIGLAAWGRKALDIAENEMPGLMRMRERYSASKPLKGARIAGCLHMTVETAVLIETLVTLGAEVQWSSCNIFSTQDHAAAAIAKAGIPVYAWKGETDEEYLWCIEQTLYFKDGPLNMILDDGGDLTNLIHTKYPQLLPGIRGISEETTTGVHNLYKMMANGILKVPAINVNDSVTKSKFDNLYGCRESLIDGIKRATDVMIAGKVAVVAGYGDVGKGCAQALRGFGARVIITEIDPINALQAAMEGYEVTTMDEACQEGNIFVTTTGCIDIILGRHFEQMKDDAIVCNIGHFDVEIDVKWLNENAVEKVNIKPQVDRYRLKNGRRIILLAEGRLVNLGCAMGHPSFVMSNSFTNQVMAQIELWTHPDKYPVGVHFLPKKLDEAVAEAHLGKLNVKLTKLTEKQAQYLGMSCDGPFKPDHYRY
Assay [2] has as its target T1, Adenosylhomocysteinase.
Target sequence in this assay (P23526 2-432 limits assumed): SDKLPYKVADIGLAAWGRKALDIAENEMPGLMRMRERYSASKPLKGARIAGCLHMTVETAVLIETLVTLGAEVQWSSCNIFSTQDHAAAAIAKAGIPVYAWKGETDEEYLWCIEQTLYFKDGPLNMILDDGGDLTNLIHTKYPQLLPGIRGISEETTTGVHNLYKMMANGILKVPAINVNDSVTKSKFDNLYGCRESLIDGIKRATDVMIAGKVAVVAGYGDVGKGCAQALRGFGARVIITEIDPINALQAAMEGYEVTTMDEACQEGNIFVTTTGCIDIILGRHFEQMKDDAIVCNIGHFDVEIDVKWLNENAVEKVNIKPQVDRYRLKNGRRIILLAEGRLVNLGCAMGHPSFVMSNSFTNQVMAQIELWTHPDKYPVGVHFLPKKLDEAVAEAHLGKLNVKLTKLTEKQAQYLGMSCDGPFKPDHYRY
Description: Inactivation constant against recombinant human placental S-Adenosyl-L-homocysteine Hydrolase
For assay [3], the target named is T1, Adenosylhomocysteinase. The source holds these as a separate data set.
Target sequence in this assay (P23526 2-432 limits assumed): as above
Description: Inhibitory potency against recombinant human placental S-Adenosyl-L-homocysteine Hydrolase at 200 uM

Broadly, the pKi is the negative decadic logarithm of the Ki, by convention in mol/L.

pKi: −log10 of the molar value. Active and inactive are the calls of the source. The rule behind the calls is not given here.

For the compound `Nc1ncnc2c1ncn2[C@H]1OC(/C=N/O)C(O)[C@@H]1O` (single isomer, unassigned), the pKi in assay [1] was 6.17. In addition, in assay [2], the Kinact is 0.16 min⁻¹. In assay [3], the Inhibitory potency result was “inactive”.

On to `Nc1ncnc2c1ncn2C1O[C@H](CO)[C@@H](O)[C@H]1O` (single isomer, unassigned), for which, in assay [3], the Inhibitory potency entry is “inactive”.
